From patent US20220073536A1 (Rigel Pharmaceuticals, Inc., priority 2003, published 2022)
Where two headings read alike, the source gives them in different places. One block for each compound: values may come before it.

Test system: cultured human mast cells (CHMC)
Experiment: CHMC low cell density IgE activation: tryptase assay
Format: cell-based
Conditions: IgE activation
Method: Inhibition of degranulation was measured at both low and high cell density by quantifying the release of the granule specific factors tryptase, histamine and hexosaminidase. Inhibition of release and/or synthesis of lipid mediators was assessed by measuring the release of leukotriene LTC4 and inhibition of release and/or synthesis of cytokines was monitored by quantifying TNF-α, IL-6 and IL-13. Tryptase and hexosaminidase were quantified using fluorogenic substrates as described in their respective examples. […] The protocols of the various assays are provided below.
Pellet CHMC cells (980 rpm, 10 min) and resuspend in pre-warmed MT. Add 65 ul of cells to each 96-well plate. Depending on the degranulation activity for each particular CHMC donor, load 1000-1500 cells/well. Mix four times followed by a 1 hr incubation at 37° C. […] Stimulate cells by adding 25 ul of 6× anti-IgE solution to the appropriate plates. Add 25 ul MT to un-stimulated control wells. Mix twice following addition of the anti-IgE. Incubate at 37° C. for 30 minutes. […] Spin plates at 1000 rpm for 10 min to pellet cells. Transfer 25 ul of supernatant to a 96-well black bottom plate and add 100 ul of freshly diluted tryptase substrate solution to each well. Incubate plates at room temperature for 30 min.

[1] = Homo sapiens, Mast cell, low cell density CHMC, tryptase release, 8 pt, read-out: LD Tryptase, CHMC, IgE, 8 pt
[2] = Homo sapiens, Mast cell, low cell density CHMC, tryptase, 3 pt, read-out: LD Tryptase, CHMC, IgE, 3 pt
[3] = Homo sapiens, Mast cell, low cell density CHMC, tryptase, 8 pt, read-out: LD Tryptase, CHMC, IgE, 8 pt
[4] = low cell density CHMC, tryptase release, 8 pt, read-out: LD Tryptase, CHMC, IgE, 8 pt
[5] = Homo sapiens, Mast cell, low cell density, 3 pt, read-out: LD Tryptase, CHMC, IgE, 3 pt
[6] = low cell density CHMC, tryptase, 3 pt, read-out: LD Tryptase, CHMC, IgE, 3 pt
[7] = low cell density CHMC, tryptase, 8 pt, read-out: LD Tryptase, CHMC, IgE, 8 pt

Compound: Cc1cc(Nc2ncc(F)c(NC3CCCCC3)n2)ccc1N1CCN(C)CC1 [Compound 1201]
- IC50 [2]: < 10 µM
- IC50 [3]: < 10 µM

Compound: COCCCn1ncc2cc(Nc3ncc(F)c(Nc4ccc5c(n4)NC(=O)C(C)(C)O5)n3)ccc21 [Compound 814, N4-(2,2-Dimethyl-3-oxo-4H-5-pyrid[1,4]oxazin-6-yl)-5-fluoro-N2-[1-(3-methoxypropyl)indazol-5-yl]-2,4-pyrimidinediamine]
- IC50 [4]: < 10 µM

Compound: CC1(C)C(=O)Nc2cc(Nc3nc(Nc4cccc(O)c4)ncc3F)ccc2S1(=O)=O [Compound 283, racemic-N4-(2,2-Dimethyl-1,1,3-trioxo-4H-benzo[1,4]thiazin-6-yl)-5-fluoro-N2-[3-hydoxyphenyl]-2,4-pyrimidinediamine]
- IC50 [4]: < 10 µM

Compound: Cc1cc(Nc2ncc(F)c(Nc3cc(C4CC4)n[nH]3)n2)ccc1N1CCN(C)CC1 [Compound 1202]
- IC50 [2]: < 10 µM
- IC50 [3]: < 10 µM

Compound: Cc1cc(C)cc(Nc2ncc(F)c(Nc3ccc4c(c3)OC(F)(F)C(F)(F)O4)n2)c1 [Compound 362, N2-(3,5-Dimethyphenyl)-5-fluoro-N4-[3,4-(tetrafluoroethylenedioxy)phenyl]-2,4-pyrimidinediamine]
- IC50 [6]: < 10 µM
- IC50 [7]: > 10 µM

Compound: N4- (3,4-Dichlorophenyl)-5-fluoro-N2- (4-[N-[methoxycarbonylmethylene]aminocarbonyl]phenyl)-N4-methyl-2,4-pyrimidinediamine [Compound 1348]
- IC50 [6]: < 10 µM

Now from value to compound:

- IC50 [1]: < 10 µM
Compound: CC(C)n1ncc2cc(Nc3ncc(F)c(Nc4ccc5c(c4)NC(=O)C(C)(C)O5)n3)ccc21 [Compound 781, N4-(2,2-Dimethyl-3-oxo-4H-benz[1,4]oxazin-6-yl)-5-fluoro-N2-[1-(1-methylethyl)indazol-5-yl]-2,4-pyrimidinediamine]

- IC50 (low cell density, 3 pt, read-out: LD Tryptase, CHMC, IgE, 3 pt): < 10 µM
- IC50 (low cell density, 8 pt, read-out: LD Tryptase, CHMC, IgE, 8 pt): < 10 µM
Compound: C[C@@H]1Oc2ccc(Nc3nc(Nc4ccc5c(c4)nc(N4CCOCC4)n5C)ncc3F)cc2NC1=O [Compound 945, (S)-5-Fluoro-N2-[1-methyl-2-(4-morpholino)benzimidazol-5-yl]-N4-(2-methyl-3-oxo-2H,4H-benz[1,4]oxazin-6-yl)-2,4-pyrimidinediamine]

- IC50 [1]: < 10 µM
Compound: COc1ccc(Nc2nc(Nc3ccc4c(cnn4CCCNS(=O)(=O)C(F)(F)F)c3)ncc2F)cc1Cl [Compound 840, N4-(3-Chloro-4-methoxyphenyl)-5-fluoro-N2-[1-[3-(N-trifluoromethylsulfonylamino)propyl]indazol-5-yl]-2,4-pyrimidinediamine]

- IC50 [2]: > 10 µM
Compound: Cc1cc(Nc2ncc(F)c(Nc3ccc4c(c3)OCO4)n2)cc(C(F)(F)F)c1 [Compound 374]

- IC50 (low cell density CHMC, tryptase release, 3 pt, read-out: LD Tryptase, CHMC, IgE, 3 pt): < 10 µM
- IC50 [4]: < 10 µM
Compound: CC1(C)Oc2ccc(Nc3nc(Nc4ccc5c(cnn5CCCO)c4)ncc3F)nc2NC1=O [Compound 838, N4-(2,2-Dimethyl-3-oxo-4H-5-pyrid[1,4]oxazin-6-yl)-5-fluoro-N2-[1-(3-hydroxypropyl)indazol-5-yl]-2,4-pyrimidinediamine]

- IC50 [2]: < 10 µM
Compound: COc1ccc(Nc2nc(Nc3cc4cnn(C)c4cc3C)ncc2F)cc1Cl [Compound 756, N4-(3-Chloro-4-methoxyphenyl)-N2-(1,6-dimethylindazol-5-yl)-5-fluoro-2,4-pyrimidinediamine]

- IC50 [5]: < 10 µM
Compound: COc1ccc(Nc2nc(Nc3ccc4c(cnn4CCCNC(=O)C(C)(C)C)c3)ncc2F)nc1Cl [Compound 892]

- IC50 (low cell density CHMC, tryptase release, 8 point, read-out: LD Tryptase, CHMC, IgE, 8 pt): < 10 µM
Compound: CNC(=O)Cn1ccc2cc(Nc3ncc(F)c(Nc4ccc(OC(F)(F)F)c(Cl)c4)n3)ccc21 [Compound 651, N4-(3-Chloro-4-trifluoromethoxyphenyl)-5-fluoro-N2-[1-(N-methylamino)carbonylmethyleneindol-5-yl]-2,4-pyrimidinediamine]

- IC50 [5]: < 10 µM
- IC50 (Homo sapiens, Mast cell, low cell density, 8 pt, read-out: LD Tryptase, CHMC, IgE, 8 pt): < 10 µM
Compound: Cc1nc2cc(Nc3ncc(F)c(Nc4ccc(Cl)c(Cl)c4)n3)ccc2n1CCO [Compound 899]

- IC50 [6]: > 10 µM
- IC50 [7]: < 10 µM
Compound: CCN(CC)CCNC(=O)c1ccc(Nc2ncc(F)c(NC3CCCC3)n2)cc1 [Compound 1350, N4-(Cyclopentyl)-N2-(4-[2-(N,N-diethylamino]ethyleneaminocarbonyl)phenyl)-5-fluoro-2,4-pyrimidinediamine]
